Laboratory results: patent US20100204343A1, “3-(4-HYDROXY-3-METHOXYPHENYL)-1-(4-HYDROXYPHENYL)-1-PROPANONE AND ITS USE AS ANTIOXIDANT” (SYMRISE GmbH & Co. KG, priority 2007, published 2010)
In brackets after ≈: the same amount, converted by molar mass.

Key:
[1] = ABTS assay, antioxidant capacity (cell free in vitro test); assay type: biochemical; conditions: ABTS discolouration measured photometrically at 734 nm; 96-well plates, 5 concentrations
Experimental: The antioxidant capacity of 3-(4-hydroxy-3-methoxyphenyl)-1-(4-hydroxyphenyl)-1-propanone of formula (I) disclosed here was evaluated with the ABTS assay, a cell free in vitro test. The assay principle bases on the chemical reduction being accompanied by discolouration of the green coloured cationic radical 2,2′-Azinobis(3-ethylbenzothiazoline 6-sulfonic acid) (ABTS^+) by antioxidants. The grade of discolouration can be measured photometrically at 734 nm. The compound of formula (I) as well as standard antioxidants like Trolox, a water soluble alpha-tocopherol analog and green tea extract were tested on 96-well microtiter plates at 5 concentrations. Each concentration was tested in double in two independent experiments. IC50 values for the compound of formula (I) as well as for the comparative examples are depicted in table 1.
Therefore, the compound of formula (I) is a highly suitable new product either to protect biological systems from damage caused by free radicals of different type and origin or to extend the shelf life of products comprising highly unstable, easily oxidising molecules.

Stability studies = assay type: physicochemical; conditions: in contrast to common antioxidants like Trolox, alpha-tocopherol or green tea extract

Row | IC50 [1] | stability (Stability studies) | SMILES
1 | 5 µg/mL (≈ 18.4 µM) | highly stable | COc1cc(CCC(=O)c2ccc(O)cc2)ccc1O [3-(4-hydroxy-3-methoxyphenyl)-1-(4-hydroxyphenyl)-1-propanone]
2 | 6 µg/mL (≈ 24 µM) |  | Cc1c(C)c2c(c(C)c1O)CCC(C)(C(=O)O)O2 (stereo not drawn) [Trolox, 6-hydroxy-2,5,7,8-tetramethylchroman-2-carboxylic acid, reference compound]
